Data published in patent US6436990B1, “6-methoxy-2-naphthylacetic acid prodrugs” (Nobex Corporation, priority 1999, dated 2002).

Columns and labels:
Rat Paw Edema = test: Rat Paw Edema; format: in vivo; settings: for % Inhibition: one dose per compound (Dose column, mg/kg): Nabumetone 79.0, 6-MNA 75.0, Indomethacin 10.0, Example 1 94.3, Example 2 121.0, Example 3 94.9, Example 4 121.0
[1] = oral administration; cited from earlier work

Structure (SMILES)	melting point	ED50 (Rat Paw Edema)	% Inhibition (Rat Paw Edema)	share of orally administered nabumetone transferred in vivo into 6MNA [1]
COc1ccc2cc(CC(=O)OCC(C)=O)ccc2c1 [Example 1, (6-methoxy-naphthalen-2-yl)-acetic acid 2-oxo-propyl ester]	122 to 124 °C	33.9 mg/kg	65%	–
COc1ccc2cc(CC(=O)OCCOCCO[N+](=O)[O-])ccc2c1 [Example 2, (6-Methoxy-naphthalen-2-yl)-acetic acid 2-(2-nitrooxy-ethoxy)-ethyl ester]	–	–	57%	–
COc1ccc2cc(CCC(C)=O)ccc2c1 [Nabumetone, nabumetone, reference compound]	–	35.9 mg/kg	60%	about 35%
COCCNC(=O)Cc1ccc2cc(OC)ccc2c1 [Example 8, N-(2-methoxy-ethyl)-2-(6-methoxy-naphthalen-2-yl)-acetamide]	129 °C	–	–	–
COc1ccc2cc(CC(=O)O)ccc2c1 [Example 6-MNA, 6-methoxy-2-naphthylacetic acid]	–	–	45%	–
CCOC(=O)COC(=O)Cc1ccc2cc(OC)ccc2c1 [Example 4, (6-methoxy-naphthalen-2-yl)-acetic acid ethoxycarbonylmethyl ester]	38 to 40 °C	–	38%	–
COc1ccc2cc(CC(=O)OCC(=O)O)ccc2c1 [Example 3, (6-methoxy-naphthalen-2-yl)-acetic acid carboxymethyl ester]	190 to 192 °C (dec.)	–	58%	–
COc1ccc2cc(CC(N)=O)ccc2c1 [Example 10, 2-(6-methoxy-naphthalen-2-yl)-acetamide]	234 to 236 °C	–	–	–
COc1ccc2c(c1)c(CC(=O)O)c(C)n2C(=O)c1ccc(Cl)cc1 [Indomethacin, reference compound]	–	–	51%	–
